Experimental data published in patent US8889711B2, “Pyrazolopyridine derivatives as anticancer agent” (Pierre Fabre Medicament, priority 2009, dated 2014).

How the values were obtained:
karpas 299 cells = assay: Measurement of inhibition of cell proliferation (Karpas), ATPlite; assay type: cell-based
Protocol: Measurement of Inhibition of Cell Proliferation (Karpas):
The antiproliferative activities of the compounds were measured using the ATPlite technique (Perkin Elmer).
The non-adhering cells (karpas 299) are seeded in 96-well plates (300 000 cells/ml) on Day 1 at a concentration compatible with logarithmic growth for 72 hours required for evaluation of the compounds. All the cells are treated on Day 1, then placed in an incubator at 37° C. under 5% CO2 atmosphere. Cell viability is evaluated on Day 4 by assay of released ATP, characteristic of viable cells. The IC50 values are determined by non-linear regression on the basis of a sigmoid model of dose/response relationship, Hill's slope coefficient being left variable, performed using GraphPad software sequence with the supplied algorithm.

ALK kinase = ALK kinase (Homo sapiens, UniProt Q9UM73); assay: Test to measure ALK kinase inhibition (GST-PLCγ1 substrate, anti-phosphotyrosine ELISA, luminescence); assay type: biochemical; settings: ALK kinase 180 ng/ml, 250 μM ATP, 30 minutes at 30° C.
ALK kinase, sequence (Q9UM73 19-1620): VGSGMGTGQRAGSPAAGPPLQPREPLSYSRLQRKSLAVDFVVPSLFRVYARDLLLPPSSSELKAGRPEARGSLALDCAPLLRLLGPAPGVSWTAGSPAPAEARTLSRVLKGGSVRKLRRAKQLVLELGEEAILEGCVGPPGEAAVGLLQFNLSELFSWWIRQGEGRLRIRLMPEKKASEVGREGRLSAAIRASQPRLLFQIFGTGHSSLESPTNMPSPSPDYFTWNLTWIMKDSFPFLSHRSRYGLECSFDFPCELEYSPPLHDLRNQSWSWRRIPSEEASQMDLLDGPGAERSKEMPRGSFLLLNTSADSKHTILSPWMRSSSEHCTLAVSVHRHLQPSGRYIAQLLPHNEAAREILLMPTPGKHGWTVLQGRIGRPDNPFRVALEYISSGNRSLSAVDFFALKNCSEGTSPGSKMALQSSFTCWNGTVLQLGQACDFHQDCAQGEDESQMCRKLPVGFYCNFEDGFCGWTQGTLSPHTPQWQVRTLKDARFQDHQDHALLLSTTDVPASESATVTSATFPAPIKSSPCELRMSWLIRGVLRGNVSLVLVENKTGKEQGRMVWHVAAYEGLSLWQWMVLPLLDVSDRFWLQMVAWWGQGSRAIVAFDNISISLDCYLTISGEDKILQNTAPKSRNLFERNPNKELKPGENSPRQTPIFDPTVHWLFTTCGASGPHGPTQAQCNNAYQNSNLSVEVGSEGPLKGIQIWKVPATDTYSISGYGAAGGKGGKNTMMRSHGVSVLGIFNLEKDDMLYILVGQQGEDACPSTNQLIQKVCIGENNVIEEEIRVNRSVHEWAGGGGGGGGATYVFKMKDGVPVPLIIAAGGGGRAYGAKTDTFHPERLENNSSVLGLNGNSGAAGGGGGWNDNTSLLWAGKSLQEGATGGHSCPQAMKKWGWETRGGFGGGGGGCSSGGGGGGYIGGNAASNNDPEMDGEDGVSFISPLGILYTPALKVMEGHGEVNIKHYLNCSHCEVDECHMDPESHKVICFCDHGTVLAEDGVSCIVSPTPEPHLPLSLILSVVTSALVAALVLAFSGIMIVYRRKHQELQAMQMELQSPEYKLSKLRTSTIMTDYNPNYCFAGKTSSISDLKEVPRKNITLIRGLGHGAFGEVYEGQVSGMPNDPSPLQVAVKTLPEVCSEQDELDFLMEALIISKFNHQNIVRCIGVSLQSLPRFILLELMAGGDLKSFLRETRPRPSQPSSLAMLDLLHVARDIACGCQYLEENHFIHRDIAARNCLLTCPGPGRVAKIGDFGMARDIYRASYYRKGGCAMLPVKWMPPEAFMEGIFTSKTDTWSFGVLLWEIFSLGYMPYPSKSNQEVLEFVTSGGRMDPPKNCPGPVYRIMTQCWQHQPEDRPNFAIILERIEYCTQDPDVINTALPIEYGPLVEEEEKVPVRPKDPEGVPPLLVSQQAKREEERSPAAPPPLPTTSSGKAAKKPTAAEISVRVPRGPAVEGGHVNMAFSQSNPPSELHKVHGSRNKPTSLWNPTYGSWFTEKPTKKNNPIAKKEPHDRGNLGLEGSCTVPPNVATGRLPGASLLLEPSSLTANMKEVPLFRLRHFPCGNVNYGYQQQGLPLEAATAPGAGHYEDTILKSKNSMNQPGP
Protocol: Test to Measure ALK Kinase Inhibition
A ViewPlate (Packard) is incubated with the GST-PLCγ1 substrate (purified recombinant form) at 0.1 mg/ml in phosphate buffer (PBS pH 7.4)(100 μl/well) for one hour under shaking. The plate is then saturated with a blocking solution containing 5% bovine serum albumin (BSA) (SIGMA) in PBS buffer pH 7.4.
After adding the inhibitor at the desired final concentration (usual range of 30 μM to 10 nM), the reaction is conducted by adding the ALK kinase at 180 ng/ml in 13 mM Tris reaction buffer pH 7.5 (SIGMA); 6.5 mM MgCl2 (MERCK); 0.65 mM DiThioThreitol (DTT) (ACROS); 39 mM sodium β-glycerophosphate (TCI); 0.65 mM sodium orthovanadate (SIGMA) and 250 μM ATP (SIGMA). Incubation is carried out for 30 minutes at 30° C. under shaking.
After three washings under shaking in 0.1% PBS/Tween-20 buffer (SIGMA), an anti-phosphotyrosine antibody coupled with HRP (UBI) diluted to 1/1000th in PBS/BSA buffer 5 mg/ml, is incubated for one hour under shaking. After three further washings in 0.1% PBS/Tween-20, the wells are incubated two minutes with 100 μl of SuperSignal ELISA mixture (PIERCE).
The signal is read in luminescent mode using a luminometer (MOLECULAR DEVICES SpectraMax M5e).

Row | SMILES | IC50 (karpas 299 cells; Homo sapiens, KARPAS-299, 72 h) [nM] | IC50 (ALK kinase) [nM] | IC50 (karpas 299 cells; 72 hours) [nM]
1 | N#Cc1c(-c2ccc(O)cc2F)nc2[nH]ncc2c1-c1ccc(N2CCNCC2)o1 [Compound 113] | 100 to 1000 | < 100 | 
2 | Cc1c(C#N)c(-c2ccc(O)cc2F)nc2[nH]nc(N)c12 [Compound 114] | 1000 to 10000 | 100 to 1000 | 
3 | Cc1c(C#N)c(-c2ccc(O)cc2F)nc2[nH]nc(-c3ccc(N4CCN(C)CC4)nc3)c12 [Compound 115] | 1000 to 10000 | 100 to 1000 | 
4 | Cc1n[nH]c2nc(-c3ccc(O)cc3F)c(C#N)c(-c3ccc(N(C)C)cc3)c12 [Compound 116] | 1000 to 10000 | 100 to 1000 | 
5 | N#Cc1c(-c2ccc(O)cc2F)nc2[nH]ncc2c1-c1ccc(Br)o1 [Compound 117] | 100 to 1000 | < 100 | 
6 | Cc1c(C#N)c(-c2ccc(O)cc2F)nc2[nH]nc(-c3ccc(N4CCNCC4)cc3)c12 [Compound 118] | 1000 to 10000 | < 100 | 
7 | Cc1c(C#N)c(-c2ccc(O)cc2F)nc2[nH]nc(-c3ccc(N(C)CCN(C)C)nc3)c12 [Compound 119] | 1000 to 10000 | 100 to 1000 | 
8 | Cc1cc(-c2n[nH]c3nc(-c4ccc(O)cc4F)c(C#N)c(C)c23)no1 [Compound 120] | 1000 to 10000 | 100 to 1000 | 
9 | N#Cc1c(-c2ccc(O)cc2F)nc2[nH]nc(N)c2c1-c1ccc(N2CCNCC2)cc1 [Compound 121] | 1000 to 10000 | < 100 | 
10 | Cc1n[nH]c2nc(-c3ccc(O)cc3F)c(C#N)c(-c3ccc(N4CC[C@@H](N)C4)o3)c12 [Compound 122] | 1000 to 10000 | < 100 | 
11 | CNC1CCN(c2ccc(-c3n[nH]c4nc(-c5ccc(O)cc5F)c(C#N)c(C)c34)cn2)C1 (centres unmarked) [Compound 123] | 1000 to 10000 | 100 to 1000 | 
12 | Cc1n[nH]c2nc(-c3ccc(O)cc3F)c(C#N)c(-c3ccc(N4CC[C@@H](N)C4)nc3)c12 [Compound 124] | 1000 to 10000 | < 100 | 
13 | CNC1CCN(c2ccc(-c3c(C#N)c(-c4ccc(O)cc4F)nc4[nH]nc(C)c34)o2)C1 (centres unmarked) [Compound 130] | 100 to 1000 | < 100 | 
14 | Cc1n[nH]c2nc(-c3ccc(O)cc3F)c(C#N)c(-c3ccc(N4CCNCC4)nc3)c12 [Compound 131] | 1000 to 10000 | 100 to 1000 | 
15 | CCN(CC)CCSc1ccc(-c2c(C#N)c(-c3ccc(O)cc3F)nc3[nH]nc(C)c23)o1 [Compound 132] | > 10000 | < 100 | 
16 | Cc1n[nH]c2nc(-c3ccc(O)cc3F)c(C#N)c(-c3ccc(N4CCC(N)CC4)o3)c12 [Compound 133] | 100 to 1000 | < 100 | 
17 | Cc1n[nH]c2nc(-c3ccc(O)cc3F)c(C#N)c(-c3ccc(N4CC[C@H](N)C4)o3)c12 [Compound 134] | 1000 to 10000 | < 100 | 
18 | Cc1n[nH]c2nc(-c3ccc(O)cc3F)c(C#N)c(C(=O)NN3CCN(C)CC3)c12 [Compound 135] | > 10000 | 100 to 1000 | 
19 | Cc1n[nH]c2nc(-c3ccc(O)cc3F)c(C#N)c(C(=O)NCCN3CCOCC3)c12 [Compound 136] | > 10000 | 1000 to 10000 | 
20 | Cc1n[nH]c2nc(-c3ccc(O)cc3F)c(C#N)c(-c3ccc(S(=O)(=O)O)o3)c12 [Compound 137] | > 10000 | 100 to 1000 | 
21 | Cc1n[nH]c2nc(-c3ccc(O)cc3F)c(C#N)c(C3C[C@@H]3C(=O)NCC3CCNCC3)c12 (some centres unmarked) [Compound 138] | > 10000 | 100 to 1000 | 
22 | Cc1n[nH]c2nc(-c3ccc(O)cc3F)c(C#N)c(-c3ccc(N4CCC(N5CCN(C)CC5)CC4)o3)c12 [Compound 142] |  | < 100 | > 10000
23 | Cc1n[nH]c2nc(-c3ccc(O)cc3F)c(C#N)c(-c3ccc([N+](=O)[O-])cc3)c12 [Compound 143] | > 10000 | 1000 to 10000 | 

Row | SMILES | IC50 (karpas 299 cells; Homo sapiens, KARPAS-299, 72 h) [nM] | IC50 (ALK kinase) [nM] | IC50 (karpas 299 cells; 72 hours) [nM]
24 | Cc1n[nH]c2nc(-c3ccc(O)cc3F)c(C#N)c(C3C[C@@H]3C(=O)N3CCNCC3)c12 (some centres unmarked) [Compound 146] | > 10000 | 100 to 1000 | 
25 | Cc1n[nH]c2nc(-c3ccc(O)cc3F)c(C#N)c(C3C[C@@H]3C(=O)N3CC[C@@H](N)C3)c12 (some centres unmarked) [Compound 147] | > 10000 | 1000 to 10000 | 
26 | Cc1n[nH]c2nc(-c3ccc(O)cc3F)c(C#N)c(-c3ccc(C#N)cc3)c12 [Compound 148] | 1000 to 10000 | 1000 to 10000 | 
27 | Cc1n[nH]c2nc(-c3ccc(O)cc3F)c(C#N)c(-c3cnc(N)s3)c12 [Compound 150] | > 10000 | 100 to 1000 | 
28 | Cc1n[nH]c2nc(-c3ccc(O)cc3F)c(C#N)c(-c3csc(C4CCNCC4)n3)c12 [Compound 152] |  | 100 to 1000 | > 10000
29 | Cc1n[nH]c2nc(-c3ccc(O)cc3F)c(C#N)c(-c3ccc(N4CCC(O)CC4)o3)c12 [Compound 153] | 1000 to 10000 | < 100 | 
30 | Cc1n[nH]c2nc(-c3c(F)cc(O)cc3F)c(C#N)c(-c3ccc(N4CCNCC4)cc3)c12 [Compound 154] | 100 to 1000 | < 100 | 
31 | Cc1n[nH]c2nc(-c3c(F)cc(O)cc3F)c(C#N)c(-c3ccc(N4CC[C@@H](N)C4)o3)c12 [Compound 155] | 1000 to 10000 | < 100 | 
32 | Cc1n[nH]c2nc(-c3ccc(O)cc3F)c(C#N)c(-c3ccc(N4CC[C@@H](O)C4)o3)c12 [Compound 156] | 100 to 1000 | < 100 | 
33 | Cc1n[nH]c2nc(-c3ccc([N+](=O)[O-])cc3F)c(C#N)c(-c3ccc(N4CCNCC4)cc3)c12 [Compound 158] | > 10000 | 1000 to 10000 | 
34 | Cc1n[nH]c2nc(-c3ccc(O)cc3F)c(C#N)c(-c3ccc(N4CCC(N(C)C)C4)o3)c12 (centres unmarked) [Compound 159] | 100 to 1000 | < 100 | 
35 | Cc1n[nH]c2nc(-c3ccc(N)cc3F)c(C#N)c(-c3ccc(N4CCNCC4)cc3)c12 [Compound 160] | > 10000 | 1000 to 10000 | 
36 | Cc1n[nH]c2nc(-c3c(F)ccc(F)c3F)c(C#N)c(-c3ccc(N4CCNCC4)cc3)c12 [Compound 161] | > 10000 | 100 to 1000 | 
37 | Cc1n[nH]c2nc(-c3ccc(O)cc3F)c(C#N)c(-c3ccc(N4CCC(N5CCCC5)CC4)o3)c12 [Compound 162] | 100 to 1000 | < 100 | 
38 | Cc1n[nH]c2nc(-c3ccc(O)cc3F)c(C#N)c(-c3ccc(N4CCC(CN)C4)o3)c12 (centres unmarked) [Compound 163] | 1000 to 10000 | < 100 | 
39 | N#Cc1c(-c2ccc(O)cc2F)nc2[nH]nc(N)c2c1-c1ccc(N2CC3CNCC3C2)o1 (centres unmarked) [Compound 164] | > 10000 | 100 to 1000 | 
40 | Cc1n[nH]c2nc(-c3ccc(O)cc3F)c(C#N)c(-c3csc(C4CCNCC4)n3)c12 [Compound 165] |  | 100 to 1000 | 1000 to 10000
41 | Cc1n[nH]c2nc(-c3ccc(O)cc3F)c(C#N)c(-c3cnc(N4CCN(C)CC4)s3)c12 [Compound 167] | 1000 to 10000 | 100 to 1000 | 
42 | Cc1n[nH]c2nc(-c3ccc(O)cc3F)c(C#N)c(C(=O)NC3CCNCC3)c12 [Compound 168] | > 10000 | 1000 to 10000 | 
43 | Cc1n[nH]c2nc(-c3ccc(O)cc3F)c(C#N)c(-c3ccc(N4CCC(N5CCN(C)CC5)CC4)o3)c12 [Compound 169] |  | < 100 | 100 to 1000
44 | Cc1n[nH]c2nc(-c3ccc(O)cc3F)c(C#N)c(-c3ccc(N4CCOCC4)o3)c12 [Compound 171] | 100 to 1000 | 100 to 1000 | 
45 | Cc1n[nH]c2nc(-c3ccc(O)cc3F)c(C#N)c(-c3ccc(N4CCNCC4)o3)c12 [Compound 172] | 1000 to 10000 | 100 to 1000 | 
46 | Cc1n[nH]c2nc(-c3ccc(O)c(Br)c3)c(C#N)c(-c3ccc(N4CCNCC4)cc3)c12 [Compound 175] | 1000 to 10000 | 100 to 1000 | 
